The record followed here is ChEMBL document CHEMBL3616434, “Identification of Phenoxyalkylbenzimidazoles with Antitubercular Activity” (J Med Chem, 2015).

Each structure is given as a SMILES string. Converted amounts (≈) assume the structure as drawn. The source made the active and inactive calls.

Data set [1] in a line: Selectivity index, ratio of TC50 for African green monkey Vero cells to MIC for Mycobacterium tuberculosis H37Rv ATCC 25618.
Data set [2] is described as follows: Cytotoxicity against African green monkey Vero cells after 2 days by luminescent assay. It counts as cell-based. Conditions: chlorocebus sabaeus, read-out: TC50.
Data set [3] can be described thus: Thermodynamic equilibrium solubility of the compound using 10 mM DMSO at pH 6. Conditions: buffer, read-out: Therm_solubility. The data set is classed as physicochemical.
A short description of data set [4]: Fraction unbound in mouse plasma after 4.5 hrs by LC-MS/MS analysis. The data set is classed as ADME, cell-free.
Data set [5] in a line: Thermodynamic equilibrium solubility of the compound using 10 mM DMSO at pH 7.4. It counts as physicochemical. Conditions: buffer, read-out: Therm_solubility.
Data set [6] can be described thus: Metabolic stability of the compound in rat liver microsomes assessed as compound turnover at 2 uM after 30 mins by LC-MS analysis. To be noted: read-out: Drug metabolism. The data set is classed as ADME.
Data set [7] concerns Mycobacterium tuberculosis. The data set can be described thus: Antitubercular activity against Mycobacterium tuberculosis H37Rv ATCC 25618 under aerobic condition after 5 days. The data set is classed as functional. To be noted: H37Rv ATCC 25618, 120 h.
Data set [8] is described as follows: Thermodynamic equilibrium solubility of the compound using 10 mM DMSO at pH 2. It counts as physicochemical. To be noted: buffer, read-out: Therm_solubility.
The nature of data set [9]: Metabolic stability of the compound in human liver microsomes assessed as compound turnover at 2 uM after 30 mins by LC-MS analysis. The data set is classed as ADME. Conditions: read-out: Drug metabolism. (In general: Microsomes from liver hold many membrane-bound enzymes, among them those of drug oxidation.)
The test system of the next data set is MDCK. The data set can be described thus: Passive permeability of the compound from apical to basolateral direction in MDCK cells at 10 uM in presence of P-gp inhibitor. The data set is classed as ADME, cell-based, Canis lupus familiaris. To be noted: dog.
Data set [10] can be described thus: Metabolic stability of the compound in mouse liver microsomes assessed as compound turnover at 2 uM after 30 mins by LC-MS analysis. To be noted: read-out: Drug metabolism. It counts as ADME.
A further data set deals with Escherichia coli. Nature of the data set: Antimicrobial activity against Escherichia coli after 1 day by serial proportion method. To be noted: 24 h. The data set is classed as functional.
The subject of another data set is Staphylococcus aureus. The data set can be described thus: Antimicrobial activity against Staphylococcus aureus after 2 days by serial proportion method. It counts as functional. To be noted: 48 h.
The subject of data set [11] is Mycolicibacterium smegmatis. The data set can be described thus: Antimicrobial activity against Mycobacterium smegmatis MC2 155 after 5 to 7 days by serial proportion method. It counts as functional. Conditions: str. MC2 155.
Data set [12] relates to Mycobacterium tuberculosis. The data set can be described thus: Antitubercular activity against Mycobacterium tuberculosis after 21 to 28 days by serial proportion method. It counts as functional.
The test system of data set [13] is Mycobacterium tuberculosis. Nature of the data set: Bactericidal activity against nonreplicating Mycobacterium tuberculosis assessed as log reduction CFU at MIC after 21 days. It counts as functional.
Data set [14] concerns Mycobacterium tuberculosis. The data set can be described thus: Bactericidal activity against replicating Mycobacterium tuberculosis at 1 to 10 times MIC after 21 days. It counts as functional, organism-based.
Data set [15] has as its system Mycobacterium tuberculosis. Nature of the data set: Bactericidal activity against nonreplicating Mycobacterium tuberculosis assessed as log reduction CFU at 1 to 10 times MIC after 21 days. It counts as functional.
The test system of data set [16] is Mycobacterium tuberculosis. Nature of the data set: Bactericidal activity against replicating Mycobacterium tuberculosis assessed as log reduction CFU at 1 to 10 times MIC after 21 days. It counts as functional.
Data set [17] deals with Mycobacterium tuberculosis. The data set can be described thus: Ratio of MBC to MIC for replicating Mycobacterium tuberculosis at 1 to 10 times MIC after 21 days. The data set is classed as functional.
The test system of data set [18] is Mycobacterium tuberculosis. The data set can be described thus: Antitubercular activity against Mycobacterium tuberculosis H37Rv. It counts as functional.

With `CCc1nc2cc(Cl)ccc2n1CCCCOc1ccccc1`, the Ratio in data set [1] is recorded as 53. Moreover, in data set [2], the CC50 at 48 h was 16 µM. Further, the solubility thermodynamic in [3] was below 1 µg/mL; in data set [5], below 1 µg/mL; in [8], 670 µg/mL (≈ 2040 µM). Moreover, the free fraction (fraction unbound) at 4.5 h in data set [4] turned out to be 0.004. The figures for the metabolised at 0.5 h, 2 µM in [6], in [9] and in [10] were 99.7%, 98.5% and 99.8%, respectively. The minimal inhibitory concentration (MIC) in data set [7] was determined as 0.3 µM (≈ 0.0987 µg/mL). In addition, the permeability in the data set on MDCK amounted to 3.6%.

For the compound `CCc1nc2ccccc2n1CCCCOc1ccccc1`, the MIC99 with Escherichia coli was above 100 µM; in the data set with Staphylococcus aureus it was above 100 µM; in data set [11], above 100 µM; in [12], 5 µM (≈ 1.47 µg/mL). Besides, in [1], the Ratio is listed as 19. In [2], the CC50 at 48 h was determined as 21 µM. Moreover, in data set [7], 1.1 µM (≈ 0.324 µg/mL) was the least that counted as inhibitory (MIC).

Regarding `CCc1nc2ccccc2n1CCCCSc1nnc(-c2ccc(Cl)cc2)o1`, the MIC99 with Escherichia coli is above 100 µM; against Staphylococcus aureus, above 100 µM; in data set [11], above 100 µM; in data set [12] it was 2.5 µM (≈ 1.03 µg/mL). Moreover, the FC in data set [13] and in data set [15] was above 3 in each case. Also, the Ratio in data set [1] is reported as 220. For the same compound, in data set [2], the CC50 at 48 h was 22 µM. For the same compound, the solubility thermodynamic in [3] was below 1 µg/mL; in [5], below 1 µg/mL; in data set [8], 830 µg/mL (≈ 2010 µM). Moreover, in [14], the outcome was inactive. Besides, in [4], the free fraction (fraction unbound) at 4.5 h amounted to 0.006. The metabolised at 0.5 h, 2 µM in [6] stood at 99.9%; in data set [9], 99.9%; in data set [10], 99.8%. The compound further showed an MIC in data set [7] of 0.1 µM (≈ 0.0413 µg/mL). Besides, the permeability in the data set on MDCK is 4.4%.

`CCc1nc2ccccc2n1CCCCNc1ccccc1`: the Ratio in [1] was found to be 89. Besides, in data set [2], the CC50 at 48 h stood at 42 µM. Further, the solubility thermodynamic in data set [3] was 10 µg/mL (≈ 34.1 µM); in data set [5], below 1 µg/mL; in [8], 610 µg/mL (≈ 2080 µM). The result in [14] was inactive. In data set [4], this compound came in with a fraction unbound at 4.5 h of 0.045. Moreover, the metabolised at 0.5 h, 2 µM in data set [6] was 99.9%; in data set [9], 90.6%; in data set [10], 99.9%. It took 0.47 µM (≈ 0.138 µg/mL) to inhibit growth in data set [7] (MIC). Moreover, the permeability with MDCK amounted to 21.5%.

As to `CCc1nc2ccccc2n1CCCCSc1ccccc1`, the MIC99 with Escherichia coli is above 100 µM; with Staphylococcus aureus, above 100 µM; in data set [11], above 100 µM; in [12] it was 10 µM (≈ 3.1 µg/mL). Further, the Ratio in data set [1] stood at 22. In addition, in data set [2], the CC50 at 48 h turned out to be 31 µM. The compound also had a minimum inhibitory concentration (MIC) in [7] of 1.4 µM (≈ 0.435 µg/mL).

On to `CCc1nc2ccccc2n1CCCOc1ccccc1`, for which the FC was 2 in [16], above 3 in data set [13] and above 3 in [15]. In addition, the Ratio in [1] is given as above 9.6; in [17], above 4. Besides, the CC50 at 48 h in data set [2] is above 50 µM. The results for the MIC in data set [18] and in data set [7] were 3.4 µM (≈ 0.953 µg/mL) and 5.2 µM (≈ 1.46 µg/mL), respectively.

For `CCc1nc2ccc(C)cc2n1CCCCOc1ccccc1`, in [1], the Ratio turned out to be 67. Also, the CC50 at 48 h in [2] was found to be 18 µM. In addition, the solubility thermodynamic in data set [3] worked out at 40 µg/mL (≈ 130 µM); in data set [5] it was 10 µg/mL (≈ 32.4 µM); in [8], 630 µg/mL (≈ 2040 µM). Besides, the metabolised at 0.5 h, 2 µM in data set [6] was 99.9%; in [9], 98.9%; in data set [10] it was 99.9%. The compound also had an MIC in data set [7] of 0.27 µM (≈ 0.0833 µg/mL).

By fraction unbound is commonly meant free concentration divided by total concentration. Broadly, the MIC is the smallest concentration in the dilution series that meets the test's criterion for growth inhibition. What is called MIC99 is an inhibitory concentration at the 99% level, which refers to growth in some studies and to a panel of isolates in others.
